From patent US20260258035A1, “FIVE-MEMBERED AND SIX-MEMBERED NITROGEN-CONTAINING COMPOUND, AND INTERMEDIATE, PREPARATION METHOD AND USE THEREOF” (HANGZHOU SYNRX THERAPEUTICS BIOMEDICAL TECHNOLOGY CO., LTD., priority 2022, published 2026)
Like-named read-outs stand apart in the source and are kept apart here.

What was measured:
[1] = target: PARG (Homo sapiens, UniProt Q86W56); assay: Biochemical assay (PARG, TFMU-ADPr substrate)
[2] = tested on: Human breast squamous carcinoma cells HCC1806; assay: Cell function assay (In-Cell Western, PAR/pADPr after MMS); format: cell-based; settings: read-out: IC50 (nM) in cell function assay
Summary of the method: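 HCC1806 cells adhered 24 h at 37 °C, 5% CO2, then were pretreated 1 h with compound (30000 nM down to 1 nM, plus 0 nM) or DMSO. MMS was then added at 0.5 mM final for 1 h before In-Cell Western detection of PAR/pADPr.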

[3] = tested on: HCC1806; assay: Cell viability assay (CellTiter-Glo); format: cell-based, Human; settings: HCC1806, 7 days, CellTiter-Glo, read-out: IC50 (nM) in cell viability assay
[4] = 4 nM PARG, 66.2 uM TFMU-ADPr, 3 min at room temperature
[5] = HCC1806, In-Cell Western, MMS treatment
[6] = HCC1806, compound 1 h then 0.5 mM MMS 1 h, PAR/pADPr antibody, In-Cell Western

PARG, sequence (Q86W56 whole entry): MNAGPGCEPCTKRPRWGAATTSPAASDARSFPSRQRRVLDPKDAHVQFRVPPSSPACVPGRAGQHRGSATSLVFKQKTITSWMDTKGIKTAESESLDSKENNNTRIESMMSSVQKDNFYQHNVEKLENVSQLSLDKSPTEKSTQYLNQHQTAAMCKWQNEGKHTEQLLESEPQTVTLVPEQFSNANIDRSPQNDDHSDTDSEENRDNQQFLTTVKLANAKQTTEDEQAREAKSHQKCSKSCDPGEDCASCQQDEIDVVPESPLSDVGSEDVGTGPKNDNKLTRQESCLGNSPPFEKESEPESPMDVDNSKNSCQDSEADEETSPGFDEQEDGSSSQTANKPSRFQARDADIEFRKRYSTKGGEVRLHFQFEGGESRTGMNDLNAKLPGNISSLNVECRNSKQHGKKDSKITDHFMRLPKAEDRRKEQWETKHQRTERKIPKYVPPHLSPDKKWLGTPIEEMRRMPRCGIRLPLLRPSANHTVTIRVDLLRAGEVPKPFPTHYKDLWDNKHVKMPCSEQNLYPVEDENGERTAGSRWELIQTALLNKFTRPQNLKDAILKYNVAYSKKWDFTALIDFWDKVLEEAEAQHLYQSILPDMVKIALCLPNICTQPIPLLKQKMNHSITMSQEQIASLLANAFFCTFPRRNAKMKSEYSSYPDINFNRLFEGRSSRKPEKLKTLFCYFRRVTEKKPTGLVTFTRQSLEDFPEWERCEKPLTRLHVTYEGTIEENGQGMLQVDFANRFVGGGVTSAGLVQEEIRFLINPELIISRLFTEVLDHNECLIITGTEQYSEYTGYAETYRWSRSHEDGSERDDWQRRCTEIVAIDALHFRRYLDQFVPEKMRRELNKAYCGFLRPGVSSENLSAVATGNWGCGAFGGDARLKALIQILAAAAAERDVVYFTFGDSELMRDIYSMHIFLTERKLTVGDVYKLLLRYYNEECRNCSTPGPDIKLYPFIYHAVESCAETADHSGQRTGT

Row | Compound | IC50 [1, 4] | IC50 ([1]; PARG, TFMU-ADPr substrate) | IC50 [2, 5] | IC50 [2, 6] | IC50 ([3]; Homo sapiens, HCC1806, 168 h) | IC50 [3]
1 | [2H]C1([2H])CCC1([2H])NS(=O)(=O)c1cc(N2CCN(C(=O)C(C)C)CC2)c2cnc(-c3nnc(C(F)F)s3)n2c1 (stereo not shown) [Example 57, N-(cyclobutyl-1,2,2-d3)-3-(5-(difluoromethyl)-1,3,4-thiadiazol-2-yl)-8-(4-isobutyrylpiperazin-1-yl)imidazo[1,5-a]pyridine-6-sulfonamide] | < 100 nM | 21.2 nM | 1110 nM | > 1000 nM | > 30000 nM | 
2 | CC(C)C(=O)N1CCN(c2cc(S(=O)(=O)NC3(C)CCOC3)cn3c(-c4nnc(C(F)F)s4)ncc23)CC1 (stereo not shown) [Example 58, 3-(5-(difluoromethyl)-1,3,4-thiadiazol-2-yl)-8-(4-isobutyrylpiperazin-1-yl)-N-(3-methyltetrahydrofuran-3-yl)imidazo[1,5-a]pyridine-6-sulfonamide] | < 100 nM | 25.1 nM | 2870 nM | > 1000 nM | > 30000 nM | 
3 | CC1(O)CCN(c2cc(S(=O)(=O)NC3(C#N)CC3)cn3c(-c4nnc(C(F)F)s4)ncc23)CC1 [Example 65, N-(1-cyanocyclopropyl)-3-(5-(difluoromethyl)-1,3,4-thiadiazol-2-yl)-8-(4-hydroxy-4-methylpiperidin-1-yl)imidazo[1,5-a]pyridine-6-sulfonamide] | < 100 nM | 7.02 nM | 122 nM | 100 to 500 nM | 5000 to 30000 nM | 6000 nM
4 | CC(C)C(=O)N1CCN(c2cc(S(=O)(=O)NC3CC3)cn3c(-c4nnc(C(F)F)s4)ncc23)CC1 [Example 69, N-cyclopropyl-3-(5-(difluoromethyl)-1,3,4-thiadiazol-2-yl)-8-(4-isobutyrylpiperazin-1-yl)imidazo[1,5-a]pyridine-6-sulfonamide] | < 100 nM | 20 nM | 9.05 nM | < 100 nM | < 500 nM | 432 nM
5 | C[C@@H]1CN(c2cc(S(=O)(=O)NC3(C#N)CC3)cn3c(-c4nnc(C(F)F)s4)ncc23)CCN1C(=O)C1CC1 [Example 75, (R)-N-(1-cyanocyclopropyl)-8-(4-(cyclopropanecarbonyl)-3-methylpiperazin-1-yl)-3-(5-(difluoromethyl)-1,3,4-thiadiazol-2-yl)imidazo[1,5-a]pyridine-6-sulfonamide] | < 100 nM | 13.2 nM | 3.78 nM | < 100 nM | < 500 nM | 370 nM
6 | CC1(C(=O)N2CCN(c3cc(S(=O)(=O)NC4(C#N)CC4)cn4c(-c5nnc(C(F)F)s5)ncc34)CC2)CC1 [Example 76, N-(1-cyanocyclopropyl)-3-(5-(difluoromethyl)-1,3,4-thiadiazol-2-yl)-8-(4-(1-methylcyclopropane-1-carbonyl)piperazin-1-yl)imidazo[1,5-a]pyridine-6-sulfonamide] | < 100 nM | 13.8 nM | 3.59 nM | < 100 nM | < 500 nM | 450 nM
7 | C[C@@H]1CN(c2cc(S(=O)(=O)NC3(C#N)CC3)cn3c(-c4nnc(C(F)F)s4)ncc23)C[C@H](C)N1C(=O)C1CC1 [Example 78, N-(1-cyanocyclopropyl)-8-((3R,5S)-4-(cyclopropanecarbonyl)-3,5-dimethylpiperazin-1-yl)-3-(5-(difluoromethyl)-1,3,4-thiadiazol-2-yl)imidazo[1,5-a]pyridine-6-sulfonamide] | < 100 nM | 7.59 nM | 7.34 nM | < 100 nM | 500 to 5000 nM | 866 nM
8 | C[C@@H]1CN(c2cc(S(=O)(=O)NC3(C#N)CC3)cn3c(-c4nnc(C(F)(F)F)s4)ncc23)CCN1C(=O)C1(C)CC1 [Example 80, (R)-N-(1-cyanocyclopropyl)-8-(3-methyl-4-(1-methylcyclopropane-1-carbonyl)piperazin-1-yl)-3-(5-(trifluoromethyl)-1,3,4-thiadiazol-2-yl)imidazo[1,5-a]pyridine-6-sulfonamide] | < 100 nM | 28.8 nM | 7.57 nM | < 100 nM | 500 to 5000 nM | 764 nM
9 | C[C@@H]1CN(c2cc(S(=O)(=O)NC3(C#N)CC3)cn3c(-c4nnc(C(F)F)s4)ncc23)CCN1C(=O)C(C)(C)C [Example 84, (R)-N-(1-cyanocyclopropyl)-3-(5-(difluoromethyl)-1,3,4-thiadiazol-2-yl)-8-(3-methyl-4-pivaloylpiperazin-1-yl)imidazo[1,5-a]pyridine-6-sulfonamide] | < 100 nM | 11 nM | 6.85 nM | < 100 nM | < 500 nM | 472 nM
10 | C[C@@H]1CN(c2cc(S(=O)(=O)NC3(C#N)CC3)cn3c(-c4nnc(C(F)F)s4)ncc23)CCN1C(=O)C(C)(C)F [Example 94, (R)-N-(1-cyanocyclopropyl)-3-(5-(difluoromethyl)-1,3,4-thiadiazol-2-yl)-8-(4-(2-fluoro-2-methylpropanoyl)-3-methylpiperazin-1-yl)imidazo[1,5-a]pyridine-6-sulfonamide] | < 100 nM | 9.55 nM | 23.4 nM | < 100 nM | < 500 nM | 350 nM
11 | CC(C)C(=O)N1CCN(c2cc(S(=O)(=O)NC3(C)CC3)cn3c(-c4nnc(C(F)F)s4)nnc23)CC1 [Example 99, 3-(5-(difluoromethyl)-1,3,4-thiadiazol-2-yl)-8-(4-isobutyrylpiperazin-1-yl)-N-(1-methylcyclopropyl)-[1,2,4]triazolo[4,3-a]pyridine-6-sulfonamide] | < 100 nM | 6.51 nM | 26.8 nM | < 100 nM | < 500 nM | 372 nM
12 | CC(C)C(=O)N1CCN(c2cc(S(=O)(=O)NC3(CF)CC3)cn3c(-c4nnc(C(F)F)s4)nnc23)CC1 [Example 100, 3-(5-(difluoromethyl)-1,3,4-thiadiazol-2-yl)-N-(1-(fluoromethyl)cyclopropyl)-8-(4-isobutyrylpiperazin-1-yl)-[1,2,4]triazolo[4,3-a]pyridine-6-sulfonamide] | < 100 nM | 1.99 nM | 4.96 nM | < 100 nM | < 500 nM | 448 nM
13 | C#CC1(NS(=O)(=O)c2cc(N3CCN(C(=O)C(C)C)CC3)c3nnc(-c4nnc(C(F)F)s4)n3c2)CC1 [Example 102, 3-(5-(difluoromethyl)-1,3,4-thiadiazol-2-yl)-N-(1-ethynylcyclopropyl)-8-(4-isobutyrylpiperazin-1-yl)-[1,2,4]triazolo[4,3-a]pyridine-6-sulfonamide] | < 100 nM | 2.54 nM | 32.1 nM | < 100 nM | 5000 to 30000 nM | 5000 nM
14 | O=S(=O)(NC1(CF)CC1)c1cc(N2CCC(CO)CC2)c2nnc(-c3nnc(C(F)F)s3)n2c1 [Example 108, 3-(5-(difluoromethyl)-1,3,4-thiadiazol-2-yl)-N-(1-(fluoromethyl)cyclopropyl)-8-(4-(hydroxymethyl)piperidin-1-yl)-[1,2,4]triazolo[4,3-a]pyridine-6-sulfonamide] | < 100 nM | 1.5 nM | 22.6 nM | < 100 nM | 500 to 5000 nM | 520 nM
15 | O=S(=O)(NC1(CF)CC1)c1cc(N2CCC3(CCO3)CC2)c2nnc(-c3nnc(C(F)F)s3)n2c1 [Example 110, 3-(5-(difluoromethyl)-1,3,4-thiadiazol-2-yl)-N-(1-(fluoromethyl)cyclopropyl)-8-(1-oxa-7-azaspiro[3.5]nonan-7-yl)-[1,2,4]triazolo[4,3-a]pyridine-6-sulfonamide] | < 100 nM | 14 nM | 89.5 nM | < 100 nM | 500 to 5000 nM | 850 nM
16 | COC1(C)CCN(c2cc(S(=O)(=O)NC3(CF)CC3)cn3c(-c4nnc(C(F)F)s4)nnc23)CC1 [Example 111, 3-(5-(difluoromethyl)-1,3,4-thiadiazol-2-yl)-N-(1-(fluoromethyl)cyclopropyl)-8-(4-methoxy-4-methylpiperidin-1-yl)-[1,2,4]triazolo[4,3-a]pyridine-6-sulfonamide] | < 100 nM | 0.37 nM | 72.9 nM | < 100 nM | 500 to 5000 nM | 916 nM
17 | CC1(NS(=O)(=O)c2cc(N3CCC(CO)CC3)c3nnc(-c4nnc(C(F)F)s4)n3c2)CC1 [Example 114, 3-(5-(difluoromethyl)-1,3,4-thiadiazol-2-yl)-8-(4-(hydroxymethyl)piperidin-1-yl)-N-(1-methylcyclopropyl)-[1,2,4]triazolo[4,3-a]pyridine-6-sulfonamide] | < 100 nM | 1.57 nM | 17.5 nM | < 100 nM | 500 to 5000 nM | 462 nM
18 | C[C@@H]1CN(c2cc(S(=O)(=O)NC3(C)CC3)cn3c(-c4nnc(C(F)F)s4)nnc23)CCN1C(=O)C1(C)CC1 [Example 117, (R)-3-(5-(difluoromethyl)-1,3,4-thiadiazol-2-yl)-8-(3-methyl-4-(1-methylcyclopropane-1-carbonyl)piperazin-1-yl)-N-(1-methylcyclopropyl)-[1,2,4]triazolo[4,3-a]pyridine-6-sulfonamide] | < 100 nM | 8.71 nM | 1.49 nM | < 100 nM | < 500 nM | 256 nM
